# Assays:
# Experiment in all cases: Intracellular Ca2+ measurement (fura-2), T-REx-293 cells stably transfected
# Assay type in all cases: cell-based
# E824V mPIEZO1 = molecular target: T1, E824V mPIEZO1 (Mus musculus, UniProt E2JF22, E824V); settings: versus WT
# T1 construct: expressed in transfected cells
# Protocol: (§1) T-REx-293 cell line was transfected with pcDNA4/TO-mPIEZO1 constructs using Lipofectamine 2000 (Invitrogen) as above and treated with 200 μg.mL^−1 zeocin (InvivoGen) to select for stably transfected cells. At least two strongly expressing clonal cell lines were established and tested for each variant. All cell lines were maintained in Dulbecco’s Modified Eagle’s medium (Invitrogen) supplemented with 10% heat-inactivated fetal calf serum (Sigma-Aldrich), penicillin (50 units.mL^−1) and streptomycin (0.5 mg.mL^−1) (Sigma-Aldrich) and grown at 37°C in a humidified 5% CO2 incubator.
# (§2) For intracellular Ca^2+ assays, cells were plated at 80–90% confluence in 96-well plates 24 h prior to recordings (6–8 × 10^4 cells per well). […] Cells were washed with SBS and incubated at room temperature for 20 min prior to recordings. Equal volumes of 2x concentrated compounds were injected to test for acute channel activation. Pre-incubation with compounds occurred during the 20 min prior to recordings. To expose cell membranes to hypo-osmolality, an equal volume of hypotonic SBS (containing only 35 mM NaCl) was injected onto the cells. Measurements were made on a fluorescence plate reader (Flexstation III, Molecular Devices) at room temperature (21 ± 2°C). Fura-2 was excited at 340 nm and 380 nm and emitted light collected at 510 nm, with measurements shown as the change in fluorescence (F) ratio (ΔF340/380).
# (§3) KC41 (Dooku1) was prepared as described.[28] All purchased chemicals and solvents were used without further purification unless otherwise stated. All compounds were at least 95% pure by 1H NMR. 1H Nuclear Magnetic Resonance spectra were recorded at 500 MHz using a Bruker DRX 500 instrument or at 400 MHz using a Bruker DPX 400. 1H spectra are referenced based on the residual proton in the solvent (e.g., the CHCl3, 0.01% in 99.99% CDCl3). Coupling constants (J) are reported to the nearest 0.1 Hz. 13C NMR spectra were recorded at 125 MHz on 500 MHz spectrometers or at 100 MHz on 400 MHz spectrometers. LC-MS was performed on a Bruker Daltronics running a gradient of increasing acetonitrile (5–95%) in H2O both containing 0.1% formic acid at 1 mL.min^−1, on a short path C18 reverse phase column, detecting compounds with both a diode array detector and a Bruker mass spectrum analyser. HRMS was performed on a Bruker Daltonics micrOTOF using positive electrospray ionisation (ES+). Automated column chromatograph was carried out using a Biotage Isolera Four, using either Sfär Silica D or KP-Silica cartridges. HPLC was performed on an Agilent 1290 Infinity Series equipped with a UV detector and Hyperprep C18 reverse phase column. Key to NMR abbreviations: s (singlet), br s (broad singlet) d (doublet), dd (doublet of doublets), ddd (doublet of doublets of doublets), t (triplet), dt (doublet of triples), q (quartet), m (multiplet), ap. t (apparent triplet). For experiments, Yoda1 and its analogues were prepared as 10 mM stock solutions in 100% dimethyl sulfoxide (DMSO) before serial dilution in DMSO and final dilution in aqueous solution. Cells were exposed to 0.1% DMSO for all concentrations of the compounds from 0 to 10 μM.
# G1994D mPIEZO1 = molecular target: T2, G1994D mPIEZO1 (Mus musculus, UniProt E2JF22, G1994D); settings: for Mean normalise fluorescence (Figure 5d): G1994D
# T2 construct: expressed in transfected cells
# Protocol: as §1, §2, §3
# R2351Q mPIEZO1 = molecular target: T3, R2351Q mPIEZO1 (Mus musculus, UniProt E2JF22, R2351Q); settings: R2351Q
# T3 construct: expressed in transfected cells
# Protocol: as §1, §2, §3
# T3 sequence (E2JF22 whole entry R2351Q): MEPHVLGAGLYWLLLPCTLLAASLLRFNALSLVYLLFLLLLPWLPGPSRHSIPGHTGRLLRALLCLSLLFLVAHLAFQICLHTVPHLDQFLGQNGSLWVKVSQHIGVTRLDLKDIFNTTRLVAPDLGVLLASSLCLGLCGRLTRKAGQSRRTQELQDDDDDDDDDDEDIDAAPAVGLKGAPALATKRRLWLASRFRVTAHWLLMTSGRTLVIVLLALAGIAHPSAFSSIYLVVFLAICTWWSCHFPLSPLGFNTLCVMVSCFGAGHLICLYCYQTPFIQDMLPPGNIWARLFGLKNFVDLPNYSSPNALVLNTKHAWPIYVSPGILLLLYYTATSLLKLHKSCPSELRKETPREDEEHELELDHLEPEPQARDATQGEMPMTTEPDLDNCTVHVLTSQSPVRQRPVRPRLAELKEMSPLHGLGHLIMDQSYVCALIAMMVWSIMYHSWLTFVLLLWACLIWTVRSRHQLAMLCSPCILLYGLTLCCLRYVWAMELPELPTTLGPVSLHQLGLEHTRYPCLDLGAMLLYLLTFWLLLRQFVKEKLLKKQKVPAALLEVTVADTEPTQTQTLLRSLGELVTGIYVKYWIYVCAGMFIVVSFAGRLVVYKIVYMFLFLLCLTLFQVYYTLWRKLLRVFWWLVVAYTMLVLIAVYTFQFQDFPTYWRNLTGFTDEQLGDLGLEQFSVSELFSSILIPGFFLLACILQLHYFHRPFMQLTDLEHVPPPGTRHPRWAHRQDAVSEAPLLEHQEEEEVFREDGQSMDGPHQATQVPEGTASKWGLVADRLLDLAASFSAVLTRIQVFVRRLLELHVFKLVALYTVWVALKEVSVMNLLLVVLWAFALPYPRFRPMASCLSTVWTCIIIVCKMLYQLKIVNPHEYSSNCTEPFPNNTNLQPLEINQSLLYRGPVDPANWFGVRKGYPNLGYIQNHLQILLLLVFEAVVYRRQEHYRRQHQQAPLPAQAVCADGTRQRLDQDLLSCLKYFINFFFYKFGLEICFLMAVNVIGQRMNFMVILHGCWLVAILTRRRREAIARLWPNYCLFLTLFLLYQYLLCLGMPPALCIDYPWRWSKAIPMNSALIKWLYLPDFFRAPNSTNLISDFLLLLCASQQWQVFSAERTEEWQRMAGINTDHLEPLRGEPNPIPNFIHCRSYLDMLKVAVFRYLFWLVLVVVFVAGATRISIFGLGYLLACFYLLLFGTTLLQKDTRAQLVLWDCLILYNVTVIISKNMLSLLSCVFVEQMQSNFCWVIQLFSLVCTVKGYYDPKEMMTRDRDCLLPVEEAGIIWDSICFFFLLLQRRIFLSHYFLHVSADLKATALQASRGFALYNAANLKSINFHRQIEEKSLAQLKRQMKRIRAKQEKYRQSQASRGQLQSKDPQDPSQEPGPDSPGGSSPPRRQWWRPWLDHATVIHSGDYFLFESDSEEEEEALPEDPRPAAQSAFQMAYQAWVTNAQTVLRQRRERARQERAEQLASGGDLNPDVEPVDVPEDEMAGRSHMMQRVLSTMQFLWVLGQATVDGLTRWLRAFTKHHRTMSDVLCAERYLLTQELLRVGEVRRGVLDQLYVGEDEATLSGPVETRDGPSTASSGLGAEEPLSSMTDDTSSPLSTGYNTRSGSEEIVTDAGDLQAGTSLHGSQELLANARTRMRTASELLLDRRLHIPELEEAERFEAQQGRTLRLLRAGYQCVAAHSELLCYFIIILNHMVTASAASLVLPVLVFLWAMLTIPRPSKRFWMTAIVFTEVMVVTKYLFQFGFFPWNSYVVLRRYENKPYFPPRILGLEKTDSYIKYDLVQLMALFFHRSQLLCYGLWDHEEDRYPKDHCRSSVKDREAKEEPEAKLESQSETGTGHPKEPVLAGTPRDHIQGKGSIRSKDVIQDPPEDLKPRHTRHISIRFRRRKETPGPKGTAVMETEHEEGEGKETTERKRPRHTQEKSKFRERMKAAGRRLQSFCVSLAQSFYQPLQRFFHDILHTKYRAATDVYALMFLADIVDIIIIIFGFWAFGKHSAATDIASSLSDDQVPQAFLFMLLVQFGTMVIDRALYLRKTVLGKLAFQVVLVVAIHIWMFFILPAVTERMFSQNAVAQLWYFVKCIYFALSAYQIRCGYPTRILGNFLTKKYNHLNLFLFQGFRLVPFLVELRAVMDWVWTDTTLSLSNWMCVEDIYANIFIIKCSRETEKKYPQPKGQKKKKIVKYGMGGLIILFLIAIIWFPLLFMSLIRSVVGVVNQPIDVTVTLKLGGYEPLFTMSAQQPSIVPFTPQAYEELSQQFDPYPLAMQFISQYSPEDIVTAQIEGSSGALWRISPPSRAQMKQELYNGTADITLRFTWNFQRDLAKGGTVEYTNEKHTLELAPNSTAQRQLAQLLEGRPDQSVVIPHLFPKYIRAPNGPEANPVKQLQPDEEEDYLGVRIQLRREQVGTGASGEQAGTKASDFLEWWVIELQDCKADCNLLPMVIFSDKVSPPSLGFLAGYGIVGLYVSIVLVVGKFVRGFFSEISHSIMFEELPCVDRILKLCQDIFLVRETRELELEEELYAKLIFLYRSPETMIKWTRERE
# T2 sequence (E2JF22 whole entry G1994D): as the sequence (E2JF22 whole entry R2351Q) above, with G1994D, Q2351R counted along it
# T1 sequence (E2JF22 whole entry E824V): as the sequence (E2JF22 whole entry R2351Q) above, with E824V, Q2351R counted along it
smiles,measurement,setting,value
Clc1cccc(Cl)c1CSc1nnc(-c2cnccn2)s1 [Yoda1],Effect on mPIEZO1 channel function,E824V mPIEZO1,reduced Y1 potency
same,Mean normalise fluorescence (Figure 5d),G1994D mPIEZO1; Yoda1 concentration 0.01 µM,0.00218
same,Mean normalise fluorescence (Figure 5d),G1994D mPIEZO1; Yoda1 concentration 0.03 µM,0.00674
same,Mean normalise fluorescence (Figure 5d),G1994D mPIEZO1; Yoda1 concentration 0.1 µM,0.01862
same,Mean normalise fluorescence (Figure 5d),G1994D mPIEZO1; Yoda1 concentration 0.3 µM,0.1159
same,Mean normalise fluorescence (Figure 5d),G1994D mPIEZO1; Yoda1 concentration 1 µM,0.3636
same,Mean normalise fluorescence (Figure 5d),G1994D mPIEZO1; Yoda1 concentration 3 µM,0.6853
same,Mean normalise fluorescence (Figure 5d),G1994D mPIEZO1; Yoda1 concentration 5 µM,0.8762
same,Mean normalise fluorescence (Figure 5d),G1994D mPIEZO1; Yoda1 concentration 10 µM,1
same,EC50,"G1994D mPIEZO1; long (20 min) exposure, normalized to 3 μM Yoda1",310 nM
same,Effect on mPIEZO1 channel function,G1994D mPIEZO1; versus WT,reduced MA: LOF; reduced inactivation: GOF; reduced Y1 potency
same,"Mean (Ca2+ signal time course, Figure 4f)","R2351Q mPIEZO1; 0.3 µM, time 0 s",-0.00579
same,"Mean (Ca2+ signal time course, Figure 4f)","R2351Q mPIEZO1; 0.3 µM, time 5 s",0.00313
same,"Mean (Ca2+ signal time course, Figure 4f)","R2351Q mPIEZO1; 0.3 µM, time 10 s",-0.01466
same,"Mean (Ca2+ signal time course, Figure 4f)","R2351Q mPIEZO1; 0.3 µM, time 15 s",0.00749
same,"Mean (Ca2+ signal time course, Figure 4f)","R2351Q mPIEZO1; 0.3 µM, time 20 s",0.00732
same,"Mean (Ca2+ signal time course, Figure 4f)","R2351Q mPIEZO1; 0.3 µM, time 25 s",0.00251
same,"Mean (Ca2+ signal time course, Figure 4f)","R2351Q mPIEZO1; 0.3 µM, time 30 s",-0.3502
same,"Mean (Ca2+ signal time course, Figure 4f)","R2351Q mPIEZO1; 0.3 µM, time 35 s",0.104
same,"Mean (Ca2+ signal time course, Figure 4f)","R2351Q mPIEZO1; 0.3 µM, time 40 s",0.09692
same,"Mean (Ca2+ signal time course, Figure 4f)","R2351Q mPIEZO1; 0.3 µM, time 45 s",0.1007
same,"Mean (Ca2+ signal time course, Figure 4f)","R2351Q mPIEZO1; 0.3 µM, time 50 s",0.1032
same,"Mean (Ca2+ signal time course, Figure 4f)","R2351Q mPIEZO1; 0.3 µM, time 55 s",0.1237
same,"Mean (Ca2+ signal time course, Figure 4f)","R2351Q mPIEZO1; 0.3 µM, time 60 s",0.09438
same,"Mean (Ca2+ signal time course, Figure 4f)","R2351Q mPIEZO1; 0.3 µM, time 65 s",0.1134
same,"Mean (Ca2+ signal time course, Figure 4f)","R2351Q mPIEZO1; 0.3 µM, time 70 s",0.1058
same,"Mean (Ca2+ signal time course, Figure 4f)","R2351Q mPIEZO1; 0.3 µM, time 75 s",0.1024
same,"Mean (Ca2+ signal time course, Figure 4f)","R2351Q mPIEZO1; 0.3 µM, time 80 s",0.1081
same,"Mean (Ca2+ signal time course, Figure 4f)","R2351Q mPIEZO1; 0.3 µM, time 85 s",0.0998
same,"Mean (Ca2+ signal time course, Figure 4f)","R2351Q mPIEZO1; 0.3 µM, time 90 s",0.09979
same,"Mean (Ca2+ signal time course, Figure 4f)","R2351Q mPIEZO1; 0.3 µM, time 95 s",0.1117
same,"Mean (Ca2+ signal time course, Figure 4f)","R2351Q mPIEZO1; 0.3 µM, time 100 s",0.1219
same,"Mean (Ca2+ signal time course, Figure 4f)","R2351Q mPIEZO1; 0.3 µM, time 105 s",0.1074
same,"Mean (Ca2+ signal time course, Figure 4f)","R2351Q mPIEZO1; 0.3 µM, time 110 s",0.1111
same,"Mean (Ca2+ signal time course, Figure 4f)","R2351Q mPIEZO1; 0.3 µM, time 115 s",0.1145
same,"Mean (Ca2+ signal time course, Figure 4f)","R2351Q mPIEZO1; 0.3 µM, time 120 s",0.1043
same,"Mean (Ca2+ signal time course, Figure 4f)","R2351Q mPIEZO1; 0.3 µM, time 125 s",0.1036
same,"Mean (Ca2+ signal time course, Figure 4f)","R2351Q mPIEZO1; 0.3 µM, time 130 s",0.08711
same,"Mean (Ca2+ signal time course, Figure 4f)","R2351Q mPIEZO1; 3 µM, time 0 s",-0.0026
same,"Mean (Ca2+ signal time course, Figure 4f)","R2351Q mPIEZO1; 3 µM, time 5 s",-0.00676
same,"Mean (Ca2+ signal time course, Figure 4f)","R2351Q mPIEZO1; 3 µM, time 10 s",-0.01186
same,"Mean (Ca2+ signal time course, Figure 4f)","R2351Q mPIEZO1; 3 µM, time 15 s",-0.00542
same,"Mean (Ca2+ signal time course, Figure 4f)","R2351Q mPIEZO1; 3 µM, time 20 s",0.01045
same,"Mean (Ca2+ signal time course, Figure 4f)","R2351Q mPIEZO1; 3 µM, time 25 s",0.0162

# From article PMC12337661, “PIEZO1 mechanical insensitivity in generalized lymphatic dysplasia with the potential for pharmacological rescue” (iScience, 2025)
